The target of data set [1] is Cyclin-dependent kinase 2/cyclin E (Homo sapiens, UniProt P24941). In words: Inhibition of CDK2/Cyclin E after 60 mins by fluorescence electrophoresis. The format is protein-complex assay.
The nature of a further data set: cells. The note with it: Mus musculus, Sal.
The nature of data set [2]: Antitumor activity against mouse Sal cells xenografted in po dosed BALB/c mouse assessed as minimum effective dose required for complete tumor growth inhibition administered BID 8 hrs apart measured within 5 days. The class given is functional. The note with it: read-out: MED.
In data set [3] the target is Insulin-like growth factor 1 receptor (Homo sapiens, UniProt P08069). In words: Inhibition of IGF1R after 60 mins by fluorescence electrophoresis.
Data set [4] is described as follows: Antitumor activity against mouse Sal cells xenografted in BALB/c mouse assessed as tumor growth inhibition at 6 to 25 mg/kg, po BID administered 8 hrs apart measured within 5 days. The format is functional. The note with it: dose mg/kg 6-25.
Data set [5] concerns Mus musculus. In words: Toxicity in BALB/c mouse xenografted with mouse Sal cells assessed as change in body weight at 25 mg/kg, po BID administered 8 hrs apart measured within 5 days relative to control. The format is organism-based. Set-up: dose 25 mg/kg, route oral. The note with it: in vivo.
The nature of data set [6]: Antitumor activity against mouse Sal cells xenografted in BALB/c mouse assessed as tumor growth inhibition at 6.25 mg/kg, po BID for 4 days measured 2 hrs after final dose on day 5. The format is functional. The note with it: read-out: TGI.
The target in another data set is Cytochrome P450 2D6 (Homo sapiens, UniProt P10635). In words: Inhibition of CYP2D6. The class given is ADME.
Data set [7] can be described thus: Antitumor activity against mouse Sal cells xenografted in BALB/c mouse assessed as tumor growth inhibition at 3.125 mg/kg, po BID for 4 days measured 2 hrs after final dose on day 5. The note with it: read-out: TGI. The format is functional.
A short description of data set [8]: Bioavailability in iv dosed monkey. The class given is ADME, organism-based, Macaca mulatta. The note with it: rhesus monkey, in vivo.
The nature of data set [9]: Total clearance in iv dosed rat. The class given is ADME, organism-based. The note with it: in vivo.
In data set [10] the target is BDNF/NT-3 growth factors receptor (Homo sapiens) (UniProt Q16620). In words: Inhibition of TrkB.
The nature of data set [11]: Permeability across human Caco-2 cells. The format is ADME, cell-based. The note with it: read-out: permeability.
Data set [12] addresses Aurora kinase B (Homo sapiens) (UniProt Q96GD4). In words: Inhibition of Aurora B.
The nature of data set [13]: Bioavailability in iv dosed dog. The format is ADME, organism-based, Canis lupus familiaris. The note with it: in vivo.
In data set [14] the target is RAC-alpha serine/threonine-protein kinase (Mus musculus, UniProt P31750). In words: Inhibition of Akt phosphorylation in mouse Sal cells by Western blotting. The class given is cell-based.
Data set [15] in a line: Permeability by PAMPA. The format is ADME. The note with it: read-out: permeability. On the technique in general: The PAMPA barrier holds no transporters, so it reflects passive diffusion.
The nature of data set [16]: Bioavailability in iv dosed mouse. The class given is ADME, organism-based. The note with it: in vivo.
Data set [17] in a line: Bioavailability in iv dosed rat. The note with it: in vivo. The format is ADME, organism-based.
Data set [18] deals with Macrophage-stimulating protein receptor (Homo sapiens) (UniProt Q04912). In words: Inhibition of Ron.
The nature of data set [19]: Antitumor activity against mouse Sal cells xenografted in BALB/c mouse assessed as tumor growth inhibition at 12.5 mg/kg, po BID for 4 days measured 2 hrs after final dose on day 5. The class given is functional. The note with it: read-out: TGI.
Data set [20] relates to Mus musculus. In words: Toxicity in BALB/c mouse xenografted with mouse Sal cells assessed as body weight loss at 25 mg/kg, po BID administered 8 hrs apart for 4 consecutive days measured within 5 days. The class given is organism-based. Set-up: dose 25 mg/kg, route oral. The note with it: in vivo.
In data set [21] the target is Insulin receptor (Mus musculus) (UniProt P15208). In words: Inhibition of insulin receptor phosphorylation in mouse Sal cells at 0.003 to 1 uM by Western blotting. The class given is cell-based.
The nature of data set [22]: Plasma protein binding in mouse. The format is ADME, cell-free. The note with it: read-out: PPB (converted).
In data set [23] the target is High affinity nerve growth factor receptor (Homo sapiens) (UniProt P04629). In words: Inhibition of TrkA.
In a further data set the target is Cytochrome P450 1A2 (Homo sapiens, UniProt P05177). In words: Inhibition of CYP1A2. The class given is ADME.
Data set [24] in a line: Total clearance in iv dosed mouse. The format is ADME, organism-based. The note with it: in vivo.
Data set [25] can be described thus: Total clearance in iv dosed dog. The note with it: in vivo. The class given is ADME, organism-based, Canis lupus familiaris.
The test system of data set [26] is Mus musculus. In words: Inhibition of IGF1R phosphorylation in po dosed BALB/c mouse xenografted with mouse Sal cells at 3.125 to 12.5 mg/kg, po BID for 4 days measured 2 hrs after final dose on day 5 by Western blot analysis. The format is functional, organism-based.
Another data set addresses Cytochrome P450 2C9 (Homo sapiens, UniProt P11712). In words: Inhibition of CYP2C9. The class given is ADME.
The target in another data set is Cytochrome P450 2C19 (Homo sapiens, UniProt P33261). In words: Inhibition of CYP2C19. The format is ADME.
The nature of data set [27]: In vivo antitumor activity against human Rh41 cells assessed as tumor growth inhibition at 12.5 mg/kg BID for 14 consecutive days measured on day 60 post tumor implantation. The format is functional. The note with it: Rh41, 1440 h, read-out: TGI.
In data set [28] the test system is Mus musculus. In words: Inhibition of Akt phosphorylation in po dosed BALB/c mouse xenografted with mouse Sal cells at 3.125 to 12.5 mg/kg, po BID for 4 days measured 2 hrs after final dose on day 5 by Western blot analysis. The format is functional, organism-based. On the technique in general: In western blotting, separated proteins are transferred to a membrane and probed.

Data set [29] in a line: Total clearance in iv dosed monkey. The class given is ADME, organism-based, Macaca mulatta. The note with it: rhesus monkey, in vivo.

As usually defined, the IC50 is the point on the concentration scale where inhibition reaches its midpoint. In general, bioavailability refers to the share of a dose that reaches the circulation, judged against a reference dose that is usually intravenous. One may read the clearance as the volume of plasma or blood freed of the substance per unit of time.

The source made the active and inactive calls. The rule behind the calls is not given here. A value given as a limit tells only on which side of the number the result lay.

Chain of Macrophage-stimulating protein receptor (Homo sapiens) (Q04912 25-304 limits assumed): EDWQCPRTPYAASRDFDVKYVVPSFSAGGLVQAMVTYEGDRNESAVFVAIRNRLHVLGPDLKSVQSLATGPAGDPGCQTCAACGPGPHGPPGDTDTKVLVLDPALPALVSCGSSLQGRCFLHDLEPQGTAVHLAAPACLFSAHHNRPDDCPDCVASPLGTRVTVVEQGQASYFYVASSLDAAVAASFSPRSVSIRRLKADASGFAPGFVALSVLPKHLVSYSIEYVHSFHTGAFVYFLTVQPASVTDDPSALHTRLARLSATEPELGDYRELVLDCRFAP
Chain of Macrophage-stimulating protein receptor (Homo sapiens) (Q04912 310-1400 limits assumed): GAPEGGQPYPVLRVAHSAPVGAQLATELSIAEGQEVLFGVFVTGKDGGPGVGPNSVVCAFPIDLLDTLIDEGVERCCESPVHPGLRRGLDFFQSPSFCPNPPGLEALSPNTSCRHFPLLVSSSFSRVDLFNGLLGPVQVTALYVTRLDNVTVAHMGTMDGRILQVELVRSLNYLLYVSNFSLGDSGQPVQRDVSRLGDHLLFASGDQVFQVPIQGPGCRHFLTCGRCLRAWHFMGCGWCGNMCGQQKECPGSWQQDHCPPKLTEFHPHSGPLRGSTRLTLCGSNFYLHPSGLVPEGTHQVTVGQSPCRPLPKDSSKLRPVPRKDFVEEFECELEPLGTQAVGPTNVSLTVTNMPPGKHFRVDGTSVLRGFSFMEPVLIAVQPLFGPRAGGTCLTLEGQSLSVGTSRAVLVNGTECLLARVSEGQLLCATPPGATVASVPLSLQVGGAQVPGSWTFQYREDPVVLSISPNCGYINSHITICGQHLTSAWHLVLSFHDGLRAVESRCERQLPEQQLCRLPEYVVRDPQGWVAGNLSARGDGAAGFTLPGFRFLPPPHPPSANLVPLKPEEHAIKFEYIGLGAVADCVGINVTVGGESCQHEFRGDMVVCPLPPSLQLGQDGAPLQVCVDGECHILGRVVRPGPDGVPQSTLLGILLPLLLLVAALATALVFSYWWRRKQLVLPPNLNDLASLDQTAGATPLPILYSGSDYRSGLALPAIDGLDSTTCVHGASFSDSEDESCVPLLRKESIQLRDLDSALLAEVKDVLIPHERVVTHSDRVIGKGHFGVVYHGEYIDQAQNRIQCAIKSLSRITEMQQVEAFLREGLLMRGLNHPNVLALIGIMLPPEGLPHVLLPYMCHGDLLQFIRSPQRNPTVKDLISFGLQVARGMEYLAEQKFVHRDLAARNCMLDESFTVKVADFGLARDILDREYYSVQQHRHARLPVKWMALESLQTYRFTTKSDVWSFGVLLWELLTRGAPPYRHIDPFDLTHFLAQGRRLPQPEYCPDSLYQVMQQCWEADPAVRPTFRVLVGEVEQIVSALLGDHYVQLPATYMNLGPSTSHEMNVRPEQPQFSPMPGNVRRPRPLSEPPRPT
Chain of BDNF/NT-3 growth factors receptor (Homo sapiens) (Q16620 32-822 limits assumed): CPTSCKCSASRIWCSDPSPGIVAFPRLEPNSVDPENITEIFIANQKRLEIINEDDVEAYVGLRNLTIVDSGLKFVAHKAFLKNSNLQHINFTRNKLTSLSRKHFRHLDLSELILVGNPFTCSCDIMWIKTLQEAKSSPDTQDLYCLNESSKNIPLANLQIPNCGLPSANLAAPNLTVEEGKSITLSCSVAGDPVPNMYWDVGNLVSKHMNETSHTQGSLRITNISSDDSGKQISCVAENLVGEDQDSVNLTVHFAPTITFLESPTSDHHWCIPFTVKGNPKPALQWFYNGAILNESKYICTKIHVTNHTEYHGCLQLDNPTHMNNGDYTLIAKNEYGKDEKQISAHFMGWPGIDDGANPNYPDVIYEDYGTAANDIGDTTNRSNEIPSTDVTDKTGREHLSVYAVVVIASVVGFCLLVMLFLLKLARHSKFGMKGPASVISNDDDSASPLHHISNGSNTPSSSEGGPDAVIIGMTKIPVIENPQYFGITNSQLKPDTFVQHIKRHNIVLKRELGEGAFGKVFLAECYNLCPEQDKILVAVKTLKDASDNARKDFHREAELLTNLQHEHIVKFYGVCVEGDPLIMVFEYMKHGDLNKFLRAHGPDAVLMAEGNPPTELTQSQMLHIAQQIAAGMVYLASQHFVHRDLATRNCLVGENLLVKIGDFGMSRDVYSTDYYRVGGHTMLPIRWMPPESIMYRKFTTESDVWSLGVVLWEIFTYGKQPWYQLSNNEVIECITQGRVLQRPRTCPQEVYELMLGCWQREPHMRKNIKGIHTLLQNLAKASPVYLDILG
Chain of Cytochrome P450 2D6 (P10635 whole entry): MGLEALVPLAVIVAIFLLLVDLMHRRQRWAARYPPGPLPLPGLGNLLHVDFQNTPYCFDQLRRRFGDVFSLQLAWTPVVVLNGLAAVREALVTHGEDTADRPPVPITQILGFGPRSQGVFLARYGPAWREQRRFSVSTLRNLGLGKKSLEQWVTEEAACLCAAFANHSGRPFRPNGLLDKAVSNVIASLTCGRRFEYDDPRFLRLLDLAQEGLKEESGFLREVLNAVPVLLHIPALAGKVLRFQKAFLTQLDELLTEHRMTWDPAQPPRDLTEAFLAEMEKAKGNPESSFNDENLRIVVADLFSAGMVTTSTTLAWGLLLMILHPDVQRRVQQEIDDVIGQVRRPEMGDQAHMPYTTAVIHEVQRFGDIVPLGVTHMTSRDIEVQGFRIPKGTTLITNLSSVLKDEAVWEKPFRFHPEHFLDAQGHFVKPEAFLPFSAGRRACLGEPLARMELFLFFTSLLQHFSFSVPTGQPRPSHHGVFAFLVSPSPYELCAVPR
Chain of Cytochrome P450 2C9 (P11712 whole entry): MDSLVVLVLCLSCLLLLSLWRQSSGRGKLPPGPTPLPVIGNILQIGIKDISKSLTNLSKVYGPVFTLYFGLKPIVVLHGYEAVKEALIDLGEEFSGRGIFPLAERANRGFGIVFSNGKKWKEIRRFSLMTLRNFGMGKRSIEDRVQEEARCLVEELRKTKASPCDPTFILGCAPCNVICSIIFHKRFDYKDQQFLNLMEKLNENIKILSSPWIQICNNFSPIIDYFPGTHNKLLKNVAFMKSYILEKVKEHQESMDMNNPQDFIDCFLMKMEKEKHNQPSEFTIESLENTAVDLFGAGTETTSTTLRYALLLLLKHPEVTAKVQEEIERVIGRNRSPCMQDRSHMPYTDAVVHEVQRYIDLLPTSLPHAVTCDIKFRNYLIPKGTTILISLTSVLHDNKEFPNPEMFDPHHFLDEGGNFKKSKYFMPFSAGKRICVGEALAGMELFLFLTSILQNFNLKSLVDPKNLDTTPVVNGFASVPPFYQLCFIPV
Chain of Cytochrome P450 2C19 (P33261 whole entry): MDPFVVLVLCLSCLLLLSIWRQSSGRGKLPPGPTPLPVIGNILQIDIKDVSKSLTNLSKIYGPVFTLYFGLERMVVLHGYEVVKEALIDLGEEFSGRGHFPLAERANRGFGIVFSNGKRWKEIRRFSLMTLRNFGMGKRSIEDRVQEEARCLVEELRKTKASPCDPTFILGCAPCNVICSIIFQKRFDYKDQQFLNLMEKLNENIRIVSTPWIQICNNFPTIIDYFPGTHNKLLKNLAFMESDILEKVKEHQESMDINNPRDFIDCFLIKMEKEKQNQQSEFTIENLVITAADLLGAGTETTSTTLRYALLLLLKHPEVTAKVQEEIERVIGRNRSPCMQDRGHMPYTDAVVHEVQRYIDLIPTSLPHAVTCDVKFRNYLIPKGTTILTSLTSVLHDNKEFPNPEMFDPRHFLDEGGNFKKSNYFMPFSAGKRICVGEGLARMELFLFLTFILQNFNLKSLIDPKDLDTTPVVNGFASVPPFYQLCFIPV
Chain of Insulin receptor (Mus musculus) (P15208 28-748 limits assumed): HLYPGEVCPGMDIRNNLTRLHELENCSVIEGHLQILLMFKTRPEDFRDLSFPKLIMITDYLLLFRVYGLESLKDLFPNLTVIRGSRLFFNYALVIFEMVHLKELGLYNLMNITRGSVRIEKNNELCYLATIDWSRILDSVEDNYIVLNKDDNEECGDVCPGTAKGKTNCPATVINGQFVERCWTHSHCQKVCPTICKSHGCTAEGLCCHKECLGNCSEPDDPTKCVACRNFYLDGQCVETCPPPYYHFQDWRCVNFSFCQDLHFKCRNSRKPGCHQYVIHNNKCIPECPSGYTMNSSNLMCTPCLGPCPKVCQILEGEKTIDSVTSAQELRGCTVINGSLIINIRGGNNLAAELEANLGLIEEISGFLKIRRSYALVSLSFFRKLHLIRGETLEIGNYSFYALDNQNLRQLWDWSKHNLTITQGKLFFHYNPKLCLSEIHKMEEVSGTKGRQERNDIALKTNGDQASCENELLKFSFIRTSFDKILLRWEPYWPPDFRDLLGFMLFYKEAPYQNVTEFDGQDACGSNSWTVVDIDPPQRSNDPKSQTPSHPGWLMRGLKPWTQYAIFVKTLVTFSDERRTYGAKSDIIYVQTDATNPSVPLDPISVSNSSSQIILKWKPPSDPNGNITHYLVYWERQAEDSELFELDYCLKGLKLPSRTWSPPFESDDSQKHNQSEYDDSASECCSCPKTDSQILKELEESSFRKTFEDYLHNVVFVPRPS
Chain of Insulin receptor (Mus musculus) (P15208 753-1372 limits assumed): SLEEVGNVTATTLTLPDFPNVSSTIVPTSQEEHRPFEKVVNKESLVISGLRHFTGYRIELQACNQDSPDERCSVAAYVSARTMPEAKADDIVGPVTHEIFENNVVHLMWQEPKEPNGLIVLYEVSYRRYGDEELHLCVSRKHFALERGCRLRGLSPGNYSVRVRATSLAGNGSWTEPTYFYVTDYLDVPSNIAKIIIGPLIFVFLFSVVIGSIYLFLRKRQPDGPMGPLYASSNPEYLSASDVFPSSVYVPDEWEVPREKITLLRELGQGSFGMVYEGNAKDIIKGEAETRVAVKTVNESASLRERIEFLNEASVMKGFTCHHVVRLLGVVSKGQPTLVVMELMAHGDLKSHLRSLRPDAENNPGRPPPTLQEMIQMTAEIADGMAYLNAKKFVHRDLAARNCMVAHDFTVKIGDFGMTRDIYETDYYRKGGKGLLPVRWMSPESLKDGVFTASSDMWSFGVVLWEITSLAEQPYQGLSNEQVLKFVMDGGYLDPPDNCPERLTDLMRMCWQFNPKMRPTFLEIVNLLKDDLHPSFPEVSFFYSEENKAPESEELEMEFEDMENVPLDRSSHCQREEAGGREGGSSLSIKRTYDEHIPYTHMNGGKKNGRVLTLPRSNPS

`C[C@@]1(C(=O)Nc2cccnc2)CCCN1c1nc(Nc2cc(C3CC3)[nH]n2)c2cccn2n1`: the IC50 in data set [1] turned out to be 1.43 µM; in “cells”, 0.024 µM; in data set [3], 0.006 µM. Further, in data set [2], the minimal effective dose amounted to 25 mg/kg. Also, in data set [4], the TGI is on record as 76%. Moreover, in the data set with Mus musculus [5], the Activity stood at 1.9 g.

Take `O=C(Nc1cccnc1)[C@@H]1CCCN1c1nc(Nc2cc(C3CC3)[nH]n2)c2cccn2n1`: the results for the IC50 (in [1]; in the data set “cells”) were 0.577 µM and 0.039 µM, respectively.

As to `CN(C(=O)[C@@H]1CCCN1c1nc(Nc2cc(C3CC3)[nH]n2)c2cccn2n1)c1ccccc1`, half-maximal inhibition in data set [1] (IC50) was put at 0.2 µM.

`C[C@@]1(C(=O)Nc2cnccn2)CCCN1c1nc(Nc2cc(C3CC3)[nH]n2)c2cccn2n1`: the minimal effective dose in [2] was 6.25 mg/kg. In data set [4], the TGI is listed as 113%. Besides, the Activity in the data set with Mus musculus [5] is reported as -3.6 g.

Regarding `Cc1ccc(NC(=O)[C@@H]2CCCN2c2nc(Nc3cc(C4CC4)[nH]n3)c3cccn3n2)cc1`, the figures for the IC50 (in [1]; in the data set “cells”) were 1.42 µM and 0.426 µM, respectively.

Regarding `O=C(Nc1ccccc1)[C@@H]1CCCN1c1nc(Nc2cc(C3CC3)[nH]n2)c2cccn2n1`, the IC50 in [1] turned out to be 0.322 µM; in the data set “cells” it was 0.133 µM.

Regarding `NC(=O)[C@@H]1CCCN1c1nc(Nc2cc(C3CC3)[nH]n2)c2cccn2n1`, the IC50 came out at 0.002 µM in data set [1] and 0.047 µM in the data set “cells”.

As to `NC(=O)[C@H]1CCCN1c1nc(Nc2cc(C3CC3)[nH]n2)c2cccn2n1`, the IC50 in data set [1] was 0.024 µM; in the data set “cells” it was 0.31 µM.

`C[C@@]1(C(=O)Nc2nccs2)CCCN1c1nc(Nc2cc(C3CC3)n[nH]2)c2cccn2n1`: the minimal effective dose in data set [2] came to 12.5 mg/kg. For the same compound, the TGI in data set [4] is 74%. Further, the Activity with Mus musculus [5] is 0.3 g.

With `O=C(Nc1nccs1)[C@@H]1CCCN1c1nc(Nc2cc(C3CC3)[nH]n2)c2cccn2n1`, the IC50 in [1] came to 0.04 µM; in the data set “cells”, 0.069 µM.

Turning to `C[C@@]1(C(=O)Nc2ccc(F)nc2)CCCN1c1nc(Nc2cc(C3CC3)n[nH]2)c2cccn2n1` [BMS-754807], the inhibition in vivo at 6.25 mg/kg in data set [6] is 107%. For the same compound, the IC50 was > 40 µM against Cytochrome P450 2D6; 0.022 µM in data set [14]; > 40 µM against Cytochrome P450 1A2; 23 µM at Cytochrome P450 2C9; 11 µM against Cytochrome P450 2C19. The inhibition in vivo at 3.125 mg/kg in [7] came to 80%. Also, the bioavailability in [8] was 8%; in data set [13], 59%; in data set [16] it was 6%; in data set [17] it was 30%. Moreover, the clearance in data set [9] was 1.2 L/h/kg; in data set [24] it was 6.78 L/h/kg; in data set [25] it was 0.21 L/h/kg; in [29], 2.46 L/h/kg. Moreover, the inhibition entry (in [10]; in [12]; in [18]; in [23]; in the data set with Mus musculus [26]; with Mus musculus [28]) was “Active” throughout. In addition, the values for the Papp in data set [11] and in data set [15] were 141 nm/s and 387 nm/s, respectively. The inhibition in vivo at 12.5 mg/kg in [19] is 110%; in data set [27], 115%. In data set [2], the minimal effective dose stood at 6.25 mg/kg. The Activity in the data set with Mus musculus [20] was > 10%; in the data set with Mus musculus [5], 0.2 g. In addition, the outcome in [21] was Active. The fraction unbound in data set [22] is 0.015. Further, in [4], the TGI is given as 102%.

Source of the values: ChEMBL document CHEMBL1154171 (J Med Chem, 2009).
